According to the CombiSolv-Exp solvation set (Vermeire and Green 2021):

Assay: solvent given as SMILES

C=CC(C)CC (stereo not given)
Conditions	solvation free energy, 298 K [kcal/mol]
in CC#N	-2.7

CCCCCCCCCC(=O)c1c(C)[nH]n(-c2ccccc2)c1=O
Conditions	solvation free energy, 298 K [kcal/mol]
in O	-8.46

O=C(Oc1ccccc1)c1ccccc1C(=O)Oc1ccccc1
Conditions	solvation free energy, 298 K [kcal/mol]
in O	-11.6

CC(C)CCCOC(=O)c1ccccc1C(=O)OCCCC(C)C
Conditions	solvation free energy, 298 K [kcal/mol]
in O	-6.73

COc1c(O)c(OC)c(Cl)c(C=O)c1Cl
Conditions	solvation free energy, 298 K [kcal/mol]
in O	-8.68

Clc1c(Cl)c(Cl)c2c(c1Cl)Oc1ccccc1O2
Conditions	solvation free energy, 298 K [kcal/mol]
in O	-3.81

CSc1ccccc1
Conditions	solvation free energy, 298 K [kcal/mol]
in O	-2.73

Cc1ccc(C)c2ccccc12
Conditions	solvation free energy, 298 K [kcal/mol]
in O	-2.82

CN1CCCC1
Conditions	solvation free energy, 298 K [kcal/mol]
in CCCCCCCCO	-4.97

Oc1cccc(O)c1
Conditions	solvation free energy, 298 K [kcal/mol]
in CCCCCC	-5.78
in CCCCCCC	-5.84
in CCCCCCCC	-5.85
in Cc1ccc(C)cc1	-8.35
in Cc1cccc(C)c1	-8.33
in Cc1ccccc1C	-8.33
in O	-11.4

CCCCCCC
Conditions	solvation free energy, 298 K [kcal/mol]
in BrC(Br)C(Br)Br	-3.34
in Brc1ccccc1	-4.35
in C1CCC(C2CCCCC2)CC1	-4.48
in C1CCCCC1	-4.83
in C1CCOC1	-4.58
in C1COCCO1	-3.86
in C=CCCCC	-4.71
in C=CCCCCCC	-4.63
in C=CCCCCCCCC	-4.55
in C=CCCCCCCCCCCCCCC	-4.24
in CC1CCS(=O)(=O)C1	-2.68
in CC1COC(=O)O1	-2.54
in CC#N	-3.18
in CC(=O)CC(C)C	-4.36
in CC(=O)N(C)C	-3.36
in CC(=O)O	-3.43
in CC(=O)c1ccccc1	-3.69
in CC(C)(C)O	-3.96
in CC(C)=O	-3.84
in CC(C)CC(C)(C)C	-4.6
in CC(C)CCCC(C)CCCC(C)CCCCC(C)CCCC(C)CCCC(C)C	-4.16
in CC(C)CCO	-3.97
in CC(C)CO	-3.92
in CC(C)O	-3.81
in CC(C)OC(C)C	-4.63
in CC(O)CO	-2.33
in CCBr	-4.71
in CCC(C)=O	-4.12
in CCCC#N	-3.69
in CCCC(=O)OCC	-4.35
in CCCC(C)=O	-4.17
in CCCC(C)O	-3.99
in CCCCC	-4.77
in CCCCC(CC)COC(=O)CCCCC(=O)OCC(CC)CCCC	-4.01
in CCCCC(CC)COC(=O)c1ccccc1C(=O)OCC(CC)CCCC	-3.79
in CCCCCC	-4.77
in CCCCCC(C)=O	-4.2
in CCCCCCCC	-4.62
in CCCCCCCCC	-4.57
in CCCCCCCCC=CCCCCCCCC(=O)OCC(COC(=O)CCCCCCCC=CCCCCCCCC)OC(=O)CCCCCCCC=CCCCCCCCC	-4.09
in CCCCCCCCCC	-4.53
in CCCCCCCCCCCC	-4.43
in CCCCCCCCCCCCCCCC	-4.34
in CCCCCCCCCCCCO	-3.99
in CCCCCCCCO	-4.02
in CCCCCCO	-4
in CCCCCCOC(C)=O	-4.27
in CCCCCl	-4.61
in CCCCN(C=O)CCCC	-3.9
in CCCCO	-3.95
in CCCCOC(=O)c1ccccc1C(=O)OCCCC	-3.88
in CCCCOC(C)=O	-4.23
in CCCCOCCCC	-4.57
in CCCCl	-4.81
in CCCO	-3.83
in CCN1CCCC1=O	-3.49
in CCN(CC)C(C)=O	-3.74
in CCN(CC)CC	-4.68
in CCNC(C)=O	-3.51
in CCNC=O	-3.25
in CCO	-3.7
in CCOC(=O)c1ccccc1C(=O)OCC	-3.35
in CCOC(C)(C)C	-4.62
in CCOC(C)=O	-4.09
in CCOCC	-4.66
in CCOCCO	-3.57
in CCOCCOCCOCC	-4.04
in CCOc1ccccc1	-4.15
in CN1CCCC1=O	-3.2
in CN1CCCCC1=O	-3.41
in CN1CCN(C)C1=O	-3.1
in CN(C)C=O	-3.16
in CN(C)P(=O)(N(C)C)N(C)C	-3.67
in CNC(C)=O	-3.34
in CNC=O	-2.85
in CO	-3.39
in COC(C)(C)C	-4.68
in COC(C)=O	-3.89
in COCCO	-3.24
in COCCOCCOCCOCCOC	-3.41
in COc1ccccc1	-4.06
in CS(C)=O	-2.27
in Cc1ccc(C)cc1	-4.58
in Cc1cccc(O)c1	-3.53
in Cc1ccccc1	-4.57
in Cc1ccccn1	-4.16
in ClC(Cl)(Cl)Cl	-4.81
in ClC(Cl)Cl	-4.64
in ClCCCl	-4.09
in ClCCl	-4.45
in Clc1ccccc1	-4.56
in FC(F)(F)C(F)(F)C(F)(F)C(F)(F)C(F)(F)C(F)(F)C(F)(F)C(F)(F)F	-2.98
in FC(F)(F)C(F)(F)C(F)(F)C(F)(F)C(F)(F)C(F)(F)C(F)(F)F	-3.2
in FC(F)(F)C(F)(F)C(F)(F)C(F)(F)C(F)(F)C(F)(F)F	-3.06
in Fc1ccccc1	-4.51
in ICI	-2.72
in N#CCCCCC#N	-2.45
in N#CCCOCCC#N	-1.99
in N#Cc1ccccc1	-3.76
in NC=O	-0.97
in NCCO	-1.34
in Nc1ccccc1	-2.99
in O=C1CCCCC1	-4
in O=C1CCCO1	-2.72
in O=C(O)C(Cl)Cl	-3.36
in O=CN1CCOCC1	-2.52
in O=Cc1ccco1	-2.96
in OCCCCCO	-2.53
in OCCCCO	-2.45
in OCCCO	-2.09
in OCCO	-1.22
in OCCOCCO	-1.9
in OCCOCCOCCO	-1.97
in OCCOCCOCCOCCO	-2.13
in OCCS	-2.46
in OCCc1ccccc1	-3.37
in OCc1ccccc1	-3.24
in OCc1ccco1	-2.87
in S=C=S	-4.76
in c1ccc2c(c1)CCCC2	-4.37
in c1ccc2ncccc2c1	-3.86
in c1ccc(C2CCCCC2)cc1	-4.33
in c1ccccc1	-4.55
in c1ccncc1	-3.9
